# Laboratory results from patent US20190315814A1, “LANTIBIOTIC VARIANTS AND USES THEREOF” (priority 2016, published 2019).
# Read-outs that look alike come from different tables or passages of the source.
# Experiments:
# [1] = system: Peptostreptococcus anaerobius (ATCC 27337); test: microbe, parasite or virus in culture; conditions: ATCC27337, read-out: MIC P. anaerobius
# [2] = system: Clostridium difficile UNT103-1; test: Second non-cannulated Syrian hamster C. difficile infection model, oral gavage dose range-finding; format: in vivo, Golden Syrian hamsters
# Protocol: (§1) Following the recovery phase, male Golden Syrian hamsters were inoculated with Clostridium difficile UNT103-1 (VA11, non epidemic (cdtB-, REA group J) Curtis Donskey, Cleveland VA Hospital, Cleveland, Ohio). On Day 1, at 24 hrs after infection, all animals received a single subcutaneous injection of clindamycin (10 mg/kg). Test article formulated at 3 to 5 different doses were administered three times per day (TID), starting on Day 2 at 18 hours after Clindamycin injection, for 5 consecutive days (Days 2 through 6), and followed until Day 22 to assess recurrence. Vancomycin (positive control) was administered once a day at 20 mg/kg on Days 2 through 6. Cecal spore counts and Toxins A and B were determined as described above.
# [3] = system: Clostridium difficile UNT103-1; test: Ileal cannulated Syrian hamster C. difficile infection model; format: in vivo, Golden Syrian hamsters
# Protocol: Following ileal cannulation surgery and recovery, male Golden Syrian hamsters were inoculated with Clostridium difficile UNT103-1 (VA11, non epidemic (cdtB-, REA group J) Curtis Donskey, Cleveland VA Hospital, Cleveland, Ohio). On Day 1, at 24 hrs after infection, all animals received a single subcutaneous injection of clindamycin (10 mg/kg). Test article formulations were administered three times per day (TID), starting on Day 2 at 18 hours after Clindamycin injection, for 5 consecutive days (Days 2 through 6). Vancomycin (positive control) was administered once a day at 20 mg/kg on Days 2 through 6, and followed until Day 22 to assess recurrence. The cecal contents from all hamsters that died on study or euthanized at the end ([…]) were tested for C. difficile Toxin A and Toxin B (tgc BIOMICS ELISA Kit, cat# TGC-E002-1) and for C. difficile Spore counts. Spore titer was determined by incubating the cecal contents in 50% final concentration of ethanol for 60 minutes at room temperature, centrifuging and resuspending the pellet in nano-pure water. The resuspension is incubated at 65° C. for 15 minutes, centrifuged again and the pellet resuspended again in nano-pure water. […] After 48 hours of anaerobic incubation, spore counts are determined as colony forming units (CFUs).
# [4] = system: Bifidobacterium breve (ATCC 15700); test: microbe, parasite or virus in culture; conditions: ATCC15700, read-out: MIC B. breve
# Clostridium difficile = test: C. difficile MIC assay (broth dilution); format: cell-based; conditions: Clostridioides difficile
# Protocol: A minimum inhibitory concentration (MIC) assessment was performed using the anaerobic human gastrointestinal pathogen Clostridium difficile. A modification of the CLSI M11-A8 broth dilution method for Bacteroides fragilis susceptibility testing was used for C. difficile. (Methods for Dilution In Antimicrobial Susceptibility Tests for Bacteria That Grow Aerobically; Approved Standard-Eighth Edition. CLSI document M07-A8 (ISBN 1-56238-689-1). Vol. 29 No. 2. Clinical and Laboratory Standards Institute, USA, 2009). […] C. difficile was streaked and incubated on blood agar plates under anaerobic conditions. […] A 4 μL aliquot of each dilution was added to 196 μL of Reinforced Clostridial Medium (RCM), with test strains in wells of a 96 well plate. The final volume was 200 μL in each well.
# Multisite variants were subsequently tested for specific antimicrobial activity in a C. difficile MIC assay (Table 10) (Methods for Antimicrobial Susceptibility Testing of Anaerobic Bacteria Approved Standard-Seventh Edition. CLSI document M11-A8 (ISBN 1-56238-790-1). Vol. 32 No. 5. Clinical and Laboratory Standards Institute, USA, 2012).
# [5] = system: Mycobacterium phlei (ATCC 11758); test: MIC assay against Mycobacterium phlei (acid-fast); format: cell-based; conditions: Mycolicibacterium phlei, ATCC11758; acid-fast microorganism; single site variants
# Staphylococcus aureus = test: MIC assay against Staphylococcus aureus; format: cell-based; conditions: Staphylococcus aureus, ATCC700699, read-out: MIC S. aureus ATCC 700699
# [6] = system: Clostridium difficile UNT103-1; test: Non-cannulated Syrian hamster C. difficile infection model, oral gavage; format: in vivo, Golden Syrian hamsters
# Protocol: as §1, with “formulations” for “formulated at 3 to 5 different doses”, “above” for “above.”
# [7] = system: Lactobacillus acidophilus (CCUG 4356); test: microbe, parasite or virus in culture; conditions: CCUG4356, read-out: MIC L. acidophilus
# [8] = system: Clostridium scindens (ATCC 35704); test: microbe, parasite or virus in culture; conditions: ATCC35704, read-out: MIC C. scindens
# [9] = vancomycin control, 20 mg/kg once a day
structure (smiles),measurement,setting,value
CN[C@H](CC(C)C)C(=O)N[C@H]1C(=O)N[C@@H](CC(N)=O)C(=O)N[C@H]2C(=O)N[C@H]3C(=O)N[C@H](C(=O)N[C@H](C(=O)O)c4cc(O)cc(O)c4-c4cc3ccc4O)[C@H](O)c3ccc(c(Cl)c3)Oc3cc2cc(c3O[C@@H]2O[C@H](CO)[C@@H](O)[C@H](O)[C@H]2O[C@H]2C[C@](C)(N)[C@H](O)[C@H](C)O2)Oc2ccc(cc2Cl)[C@H]1O [Vancomycin],MIC,[1],1 mg/L
same,Mean LOG10 CFU/mL of feces homogenates (cecal spore counts) at Day-22,"[2]; hamster, in vivo, 20 mg/kg",6.66 LOG10 CFU/mL
same,Percent Survival at Day-22,"[2]; hamster, in vivo, 20 mg/kg",50%
same,Toxin A level at Day-22,[2]; [9],292.6 ng/mL
same,Toxin B level at Day-22,[2]; [9],71.1 ng/mL
same,Mean LOG10 CFU/mL of feces homogenates (cecal spore counts) at Day-22,"[3]; hamster, in vivo",3.24 LOG10 CFU/mL
same,Percent Survival at Day-22,"[3]; ileal cannulated hamsters, test articles TID Days 2-6, vancomycin 20 mg/kg once a day",33%
same,MIC,[4],0.5 mg/L
same,MIC,"Clostridium difficile; ATCC9689, strain ATCC 9689, first value of cell (first of two independent tests), read-out: C. difficile MIC ATCC 9689",4 mg/L
same,MIC,"Clostridium difficile; ATCC9689, strain ATCC 9689, multi-site variants, read-out: C. difficile MIC ATCC 9689",0.5 mg/L
same,MIC,"Clostridium difficile; ATCC9689, strain ATCC 9689, second value of cell (second independent test), read-out: C. difficile MIC ATCC 9689",8 mg/L
same,MIC,"Clostridium difficile; ATCC43255, strain ATCC 43255, read-out: C. difficile MIC ATCC 43255",1 mg/L
same,MIC,"Clostridium difficile; ATCC43596, strain ATCC 43596, read-out: C. difficile MIC ATCC 43596",1 mg/L
same,MIC,"Clostridium difficile; ATCC43597, strain ATCC 43597, read-out: C. difficile MIC ATCC 43597",0.5 mg/L
same,MIC,"Clostridium difficile; ATCC70057, read-out: C. difficile MIC ATCC 70057, strain ATCC 70057, first value of cell (first of two independent tests)",0.5 mg/L
same,MIC,"Clostridium difficile; ATCC70057, strain ATCC 70057, second value of cell (second independent test), read-out: C. difficile MIC ATCC 70057",1 mg/L
same,MIC,"Clostridium difficile; ATCCBAA1805, strain ATCC BAA-1805, multi-site variants, read-out: C. difficile MIC ATCC BAA-1805",1 mg/L
same,MIC,"Clostridium difficile; ATCCBAA1808, strain ATCC BAA-1808, read-out: C. difficile MIC ATCC BAA-1808",0.5 mg/L
same,MIC,"Clostridium difficile; ATCCBAA1874, strain ATCC BAA-1874, read-out: C. difficile MIC ATCC BAA-1874",0.5 mg/L
same,MIC,"Clostridium difficile; ATCCBAA1875, strain ATCC BAA-1875, multi-site variants, read-out: C. difficile MIC ATCC BAA-1875",0.5 mg/L
same,MIC,"Clostridium difficile; BAA1805, strain BAA-1805, single site variants, read-out: C. difficile MIC BAA-1805",1 mg/L
same,MIC,"Clostridium difficile; BAA1875, strain BAA-1875, single site variants, read-out: C. difficile MIC BAA-1875",1 mg/L
same,MIC,"Clostridium difficile; strain 103-1 (UNT103-1), read-out: C. difficile MIC 103-1",1 mg/L
same,MIC,"Clostridium difficile; strain 107-1 (UNT107-1), read-out: C. difficile MIC 107-1",4 mg/L
same,MIC,"Clostridium difficile; strain BI1, read-out: C. difficile MIC BI1",8 mg/L
same,MIC,[5],0.25 mg/L
same,MIC,Staphylococcus aureus,2 mg/L
same,Mean LOG10 CFU/mL of feces homogenates (cecal spore counts) at Day-22,"[6]; hamster, in vivo, po",2.96 LOG10 CFU/mL
same,Percent Survival at Day-22,"[6]; oral gavage TID Days 2-6, vancomycin 20 mg/kg once a day",83%
same,Toxin A level at Day-22,"[6]; oral gavage, first value of A/B cell, limit of detection 0.8",84.2 ng/mL
same,Toxin B level at Day-22,"[6]; oral gavage, second value of A/B cell, limit of detection 0.8",8 ng/mL
same,MIC,[7],1 mg/L
same,MIC,[8],1 mg/L
